Test results taken from article PMC3726599, “A Metabolically-Stabilized Phosphonate Analog of Lysophosphatidic Acid Attenuates Collagen-Induced Arthritis” (PLoS ONE, 2013).

Experiments:
[1] = molecular target: T1, recombinant ATX (Homo sapiens, UniProt Q13822); assay: TOOS activity assay, LPC hydrolysis by recombinant ATX; type: biochemical; conditions: for Vmax of ATX in presence of BrP-LPA: 16:0 LPC 100–400 μΜ, mean(std); for % Inhibition at 10 μΜ: BrP-LPA 10 μΜ; for IC50: [S] 50 μΜ, 2 nM ATX
T1 construct: purchased SinoBiological Inc (main data); R&D (additional Km values)
Procedure: (§1) ATX/LysoPLD activity was assessed based on the amount of choline released from LPC with the use of TOOS (N-ethyl-N-(2-hydoroxy-3-sulfopropyl)-3-methylaniline) reagent. In this assay ATX-mediated LPC-liberated choline is oxidised by choline oxidase to betaine and hydrogen peroxide (H2O2). The latter in the presence of horseradish peroxidase reacts with TOOS and 4-aminoantipyrene (4-AAP) to form a pink quinoneimine dye measured at 555 nm.
(§2) Diluted plasma samples (100 fold dilution; final EDTA concentration 0.5 mM) or recombinant ATX protein (2 nM) were incubated with LPC in the presence of 100 mmol/l Tris–HCl/pH 9.0, 500 mmol/l NaCl, 5 mmol/l MgCl2, 5 mmol/l CaCl2, 60 μM CoCl2 and 0.05% Triton X-100 for 3 h at 37°C at a final volume of 100 μl. It should be noted that EDTA was used not only as an anticoagulant but also as an inhibitor of ATX activity ex vivo [46], in order to suppress artificial LPA production during blood withdrawal and plasma preparation; this is because the same samples were used in phospholipid measurements.
(§3) The liberated choline was detected by adding 100 μl of a color mix containing 4-AAP and TOOS (0.3 mM), horseradish peroxidase (5.3 UnitmL^−1) and choline oxidase (2 UnitmL^−1). Absorbance was measured at 555 nm and data were analyzed using the statistical software package Prism 4.0 (Graphpad Software Inc, La Jolla, CA, USA). For each sample and control the absorbance was plotted against time and the slope (da/min) for the linear (steady-state) portion of each reaction profile was calculated. Absorbance units were converted to nmol of choline/min/ml by comparison with a choline standard curve or by use of the extinction coefficient for the quinoneimine dye according to the following equation: [drawing 1] Where Vt* is the total volume of reaction in ml (0.2 ml); Vs* is the volume of sample in ml; e is the millimolar extinction coefficient of quinoneimine dye under the assay conditions (e = e = […]); and 1/2: Factor based on the fact that 1 mol of hydrogen peroxide produces 1/2 mol of quinoneimine dye.
The biochemistry of lyso-PLD was assessed by following the kinetics data using a wide panel of different ATX substrates [FS-3, different LPC species (14:0, 16:0, 18:0, 18:1)], three different recombinant ATX proteins (R&D, Sino-Biological and Echelon) and three different ATX activity assays (FS-3, TOOS, Amplex Red). The ATX activity was measured at different substrate concentrations (typically from 1-1000 μM) in order to examine whether ATX follows Michaelis-Menten kinetics. The Michaelis constant (Km) was obtained by fitting the substrate dependence of V (ATX activity) to a rectangular hyperbola using the non-linear regression analysis of the statistical software package Prism 4.0 (GraphPad Software, Inc.). Km and Vmax were evaluated from the rectangular hyperbola curve with the use of GraphPad software.
(§4) For in vitro inhibition measurements, BrP-LPA was dissolved in water as a stock solution (4 mM) and appropriate dilutions were made in water. The inhibition of ATX by BrP-LPA was measured employing 2 nM recombinant ATX, 50 μΜ LPC (14:0, 16:0, 18:0) and 0.01 to 100 μmol/L of BrP-LPA (final concentrations). The in vitro inhibition of ATX by BrP-LPA was evaluated with three different assays (FS-3, Amplex Red, and TOOS). […] BrP-LPA was also tested for its ability to inhibit mouse plasma ATX activity. Diluted mouse plasma was used as the source of ATX and the analysis of inhibition was made with TOOS as the in vitro inhibition assay.
The inhibition model (competitive, noncompetitive, or mixed type inhibition) was evaluated by graphical analysis with Lineweaver–Burk double reciprocal plots (1/[velocity] versus 1/[substrate]) and Cornish-Bowden plot ([substrate]/[velocity] versus [Inhibitor]). These plots were generated by the measurement of ATX activity in the presence of different BrP-LPA concentrations (0–10 μΜ) and increased amounts of 16:0 LPC (100, 200, 400 μΜ). […]

[2] = molecular target: T2, plasma ATX/LysoPLD (Mus musculus, UniProt Q9R1E6); assay: Plasma ATX/lysoPLD activity ex vivo (TOOS assay, exogenous LPC); type: biochemical; conditions: for IC50: TOOS
T2 construct: from tissue; host or cells: mouse plasma / whole blood
Procedure: as §1, §2, §3, §4
The inhibition model (competitive, noncompetitive, or mixed type inhibition) was evaluated by graphical analysis with Lineweaver–Burk double reciprocal plots (1/[velocity] versus 1/[substrate]) and Cornish-Bowden plot ([substrate]/[velocity] versus [Inhibitor]). These plots were generated by the measurement of ATX activity in the presence of different BrP-LPA concentrations (0–10 μΜ) and increased amounts of 16:0 LPC (100, 200, 400 μΜ). The inhibition constants (Ki) and IC50 values were determined using the mean values obtained from two independent experiments. The relative remaining ATX activity or LPA levels in the presence of the BrP-LPA was expressed as a percentage of the corresponding control value (ATX activity, LPA levels without inhibitor). The IC50 value was determined graphically by plotting the log concentration of BrP-LPA versus relative remaining ATX activity or LPA levels of each test sample using the sigmoid dose–response fitting method (Prism® software). The IC50 (concentration of BrP-LPA sufficient to inhibit ATX activity or diminish LPA levels by 50%) was calculated by the equation f = y0+a/(1+exp(-(x-x0)/b)) given by SigmaPlot 11.0 (Systat Software, Inc., San Jose, CA, USA).

[3] = test system: LPA1; conditions: Ca++ mobilization, RH7777 cells; kind of constant not given; read-out: inhibition of LPA1; cited from earlier work
[4] = test system: LPA3; conditions: Ca++ mobilization, RH7777 cells; kind of constant not given; read-out: inhibition of LPA3; cited from earlier work
[5] = test system: ATX; conditions: at 10 μM, substrate FS-3; cited from earlier work
[6] = test system: transformed NIH3T3 cells expressing ras and ATX; parameters: method as in PMID 18454946; conditions: cited from earlier work
[7] = test system: peri-tumor tissue fibroblasts, hepatocellular carcinoma cells; parameters: method as in PMID 21674557; conditions: cited from earlier work
[8] = test system: liver tumor; parameters: method as in earlier work; conditions: in vivo; cited from earlier work

In the case of `CCCCCCCCCCCCCCCC(=O)OC[C@@H](O)CC(Br)P(=O)(O)O` (stereo partly drawn) [BrP-LPA, 1-bromo-3(S)-hydroxy-4-(palmitoyloxy)butyl-phosphonate], the “mode of inhibition of ATX lysoPLD activity” value ([1]; 16:0 LPC as substrate, Cornish-Bowden and Lineweaver-Burk plots) is reported as “competitive”, the “Vmax of ATX in presence of BrP-LPA” value ([1]; BrP-LPA 1 μM) is reported as 51(3) nmole/min/ml and the “Vmax of ATX in presence of BrP-LPA” value ([1]; BrP-LPA 3 μM) is reported as 71(4) nmole/min/ml. For the same molecule, the “Vmax of ATX in presence of BrP-LPA” value ([1]; BrP-LPA 10 μM) was 54(13) nmole/min/ml, the “% Inhibition at 10 μΜ” value ([1]; TOOS, 16:0 LPC 50 μΜ) was 80% and the “% Inhibition at 10 μΜ” value ([1]; TOOS, 18:0 LPC 50 μΜ) was 70%. It also gave a Ki ([1]; TOOS, 18:0 LPC, Cheng-Prusoff from IC50) of 600 ± 110 nM, an IC50 ([1]; TOOS, substrate 16:0 LPC, mean±std of two experiments) of 700 ± 200 nM and an IC50 ([1]; TOOS, substrate 18:0 LPC, mean±std) of 900 ± 100 nM. For the same molecule, the “% Inhibition at 10 μΜ” value ([2]; 14:0 LPC 50 μΜ) was 28%, the “% Inhibition at 10 μΜ” value ([2]; 16:0 LPC 50 μΜ) was 58% and the “% Inhibition at 10 μΜ” value ([2]; 18:0 LPC 50 μΜ) was 70%. For the same molecule, the IC50 ([2]; exogenous 14:0 LPC 50 μΜ) was over 10000 nM, the IC50 ([2]; exogenous 16:0 LPC 50 μΜ) was 2900 ± 300 nM and the IC50 ([2]; exogenous 18:0 LPC 50 μΜ) was under 100 nM. For the same molecule, the IC50 [3] was 1500 nM, the IC50 [4] was 1200 nM and the “inhibition of lysophospholipase D activity of ATX” value [5] was 94%. For the same molecule, the decrease of chemotaxis [6] was 23%, the “trans-differentiation of peri-tumor fibroblasts and HCC cell proliferation, migration, invasion” value [7] was “block the trans-differentiation of peri-tumor tissue fibroblasts and the associated proliferation, migration and invasion of hepatocellular carcinoma cells” and the “liver tumor weight and volume” value [8] was “reduce liver tumor weight and volume in vivo”.
